Reference: patent publication US9073855B2, “BCL-2 selective apoptosis-inducing agents for the treatment of cancer and immune diseases” (AbbVie Inc., priority 2008, dated 2015)

How the values were obtained:
GST-Bcl-XL = GST-Bcl-XL (Homo sapiens, UniProt Q07817); assay: TR-FRET binding assay, GST-Bcl-XL with F-Bak peptide probe; details: TR-FRET Binding Affinity, GST-Bcl-XL, F-Bak peptide probe
Procedure: (§1) Tb-anti-GST antibody was purchased from Invitrogen (Catalog No. PV4216).
(§2) Representative compounds were serially diluted in dimethyl sulfoxide (DMSO) starting at 50 μM (2× starting concentration; 10% DMSO) and 10 μL were transferred into a 384-well plate.
(§3) The samples were then mixed on a shaker for 1 minute and incubated for an additional 3 hours at room temperature. For each assay, the probe/antibody and protein/probe/antibody were included on each assay plate as negative and positive controls, respectively. Fluorescence was measured on the ENVISION plate reader (Perkin Elmer) using a 340/35 nm excitation filter and 520/525 (F-Bak peptide) and 495/510 nm (Tb-labeled […] antibody) emission filters.
(§4) The inhibition constant (Ki) is the dissociation constant of an enzyme-inhibitor complex or a protein/small molecule complex, wherein the small molecule is inhibiting binding of one protein to another protein or peptide. […] Inhibition constants were determined using Wang's equation (Wang Z-X., An Exact Mathematical Expression For Describing Competitive Binding Of Two Different Ligands To A Protein Molecule. FEBS Lett. 1995, 360:111-4).

GST-Bcl-2 = GST-Bcl-2 (Homo sapiens, UniProt P10415); assay: TR-FRET binding assay, GST-Bcl-2 with F-Bak peptide probe; details: TR-FRET Binding Affinity, GST-Bcl-2, F-Bak peptide probe
Sequence of GST-Bcl-2 (P10415 whole entry): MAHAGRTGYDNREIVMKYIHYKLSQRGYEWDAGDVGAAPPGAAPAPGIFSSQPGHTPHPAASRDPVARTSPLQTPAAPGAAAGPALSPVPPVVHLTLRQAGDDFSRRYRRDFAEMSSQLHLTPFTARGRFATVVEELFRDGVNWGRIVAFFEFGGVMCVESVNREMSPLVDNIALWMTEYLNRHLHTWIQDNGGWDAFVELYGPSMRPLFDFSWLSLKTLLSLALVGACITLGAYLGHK
Procedure: as §1, §2, §3, §4

Sequence of GST-Bcl-XL (Q07817 whole entry): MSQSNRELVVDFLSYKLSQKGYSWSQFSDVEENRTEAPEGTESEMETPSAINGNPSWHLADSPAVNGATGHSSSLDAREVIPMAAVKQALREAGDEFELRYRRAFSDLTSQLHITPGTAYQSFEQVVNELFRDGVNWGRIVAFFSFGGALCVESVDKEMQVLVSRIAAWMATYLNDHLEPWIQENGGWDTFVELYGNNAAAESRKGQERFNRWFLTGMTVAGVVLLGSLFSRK

Row | Compound | Ki (GST-Bcl-XL) | Ki (GST-Bcl-2)
1 | O=C(NS(=O)(=O)c1ccc(NCCCN2CCOCC2)c([N+](=O)[O-])c1)c1ccc(N2CCN(Cc3ccccc3-c3ccc(Cl)cc3)CC2)cc1Oc1ccc2ccccc2c1 [Example 36, 4-{4-[(4′-chloro-1,1′-biphenyl-2-yl)methyl]piperazin-1-yl}-N-({4-[(3-morpholin-4-ylpropyl)amino]-3-nitrophenyl}sulfonyl)-2-(2-naphthyloxy)benzamide] | 8.99 nM | 0.796 nM
2 | O=C(NS(=O)(=O)c1ccc(NCC2CCOCC2)c(S(=O)(=O)C(F)(F)F)c1)c1ccc(N2CCN(Cc3ccccc3-c3ccc(Cl)cc3)CC2)cc1Oc1ccc2ccccc2c1 [Example 37, 4-{4-[(4′-chloro-1,1′-biphenyl-2-yl)methyl]piperazin-1-yl}-2-(2-naphthyloxy)-N-({4-[(tetrahydro-2H-pyran-4-ylmethyl)amino]-3-[(trifluoromethyl)sulfonyl]phenyl}sulfonyl)benzamide] | 44.4 nM | 0.464 nM
3 | CN(C)CCCNc1ccc(S(=O)(=O)NC(=O)c2ccc(N3CCN(Cc4ccccc4-c4ccc(Cl)cc4)CC3)cc2Oc2cccc3cnccc23)cc1[N+](=O)[O-] [Example 42, 4-{4-[(4′-chloro-1,1′-biphenyl-2-yl)methyl]piperazin-1-yl}-N-[(4-{[3-(dimethylamino)propyl]amino}-3-nitrophenyl)sulfonyl]-2-(isoquinolin-5-yloxy)benzamide] | 3.84 nM | 0.048 nM
4 | CN(C)CCCNc1ccc(S(=O)(=O)NC(=O)c2ccc(N3CCN(Cc4ccccc4-c4ccc(Cl)cc4)CC3)cc2Oc2ccc3cc[nH]c3c2)cc1[N+](=O)[O-] [Example 47, 4-{4-[(4′-chloro-1,1′-biphenyl-2-yl)methyl]piperazin-1-yl}-N-[(4-{[3-(dimethylamino)propyl]amino}-3-nitrophenyl)sulfonyl]-2-(1H-indol-6-yloxy)benzamide] | 104 nM | 6.63 nM
5 | CC1(C)CCC(c2ccc(Cl)cc2)=C(CN2CCN(c3ccc(C(=O)NS(=O)(=O)c4ccc(NCCCN5CCOCC5)c([N+](=O)[O-])c4)c(Oc4ccc5[nH]ccc5c4)c3)CC2)C1 [Example 50, 4-(4-{[2-(4-chlorophenyl)-5,5-dimethylcyclohex-1-en-1-yl]methyl}piperazin-1-yl)-2-(1H-indol-5-yloxy)-N-({4-[(3-morpholin-4-ylpropyl)amino]-3-nitrophenyl}sulfonyl)benzamide] | 90.1 nM | 0.471 nM
6 | CN(C)CCCNc1ccc(S(=O)(=O)NC(=O)c2ccc(N3CCN(CC4=C(c5ccc(Cl)cc5)CCC(C)(C)C4)CC3)cc2Oc2ccc3[nH]ccc3c2)cc1[N+](=O)[O-] [Example 51, 4-(4-{[2-(4-chlorophenyl)-5,5-dimethylcyclohex-1-en-1-yl]methyl}piperazin-1-yl)-N-[(4-{[3-(dimethylamino)propyl]amino}-3-nitrophenyl)sulfonyl]-2-(1H-indol-5-yloxy)benzamide] | 15.6 nM | 0.252 nM
7 | O=C(NS(=O)(=O)c1ccc(NCCCN2CCOCC2)c([N+](=O)[O-])c1)c1ccc(N2CCN(Cc3ccccc3-c3ccc(Cl)cc3)CC2)cc1Oc1cccc2[nH]ccc12 [Example 58, 4-{4-[(4′-chloro-1,1′-biphenyl-2-yl)methyl]piperazin-1-yl}-2-(1H-indol-4-yloxy)-N-({4-[(3-morpholin-4-ylpropyl)amino]-3-nitrophenyl}sulfonyl)benzamide] | 288 nM | 1.08 nM
8 | COc1ccc(S(=O)(=O)NC(=O)c2ccc(N3CCN(Cc4ccccc4-c4ccc(Cl)cc4)CC3)cc2Oc2ccccc2)cc1 [Example 60, 4-{4-[(4′-chloro-1,1′-biphenyl-2-yl)methyl]piperazin-1-yl}-N-[(4-methoxyphenyl)sulfonyl]-2-phenoxybenzamide] | > 660 nM | 18.9 nM
9 | Cc1ccc(S(=O)(=O)NC(=O)c2ccc(N3CCN(Cc4ccccc4-c4ccc(Cl)cc4)CC3)cc2Oc2ccccc2)cc1 [Example 61, 4-{4-[(4′-chloro-1,1′-biphenyl-2-yl)methyl]piperazin-1-yl}-N-[(4-methylphenyl)sulfonyl]-2-phenoxybenzamide] | > 660 nM | 52.2 nM
10 | O=C(NS(=O)(=O)c1ccc(NCC2CCOCC2)c(S(=O)(=O)C(F)(F)F)c1)c1ccc(N2CCN(Cc3ccccc3-c3ccc(Cl)cc3)CC2)cc1Oc1ccc2[nH]ccc2c1 [Example 62, 4-{4-[(4′-chloro-1,1′-biphenyl-2-yl)methyl]piperazin-1-yl}-2-(1H-indol-5-yloxy)-N-({4-[(tetrahydro-2H-pyran-4-ylmethyl)amino]-3-[(trifluoromethyl)sulfonyl]phenyl}sulfonyl)benzamide] | 571 nM | 3.52 nM
11 | CN(C)CCCNc1ccc(S(=O)(=O)NC(=O)c2ccc(N3CCN(Cc4ccccc4-c4ccc(Cl)cc4)CC3)cc2Oc2ccc3[nH]ccc3c2)cc1S(=O)(=O)C(F)(F)F [Example 64, 4-{4-[(4′-chloro-1,1′-biphenyl-2-yl)methyl]piperazin-1-yl}-N-({4-{[3-(dimethylamino)propyl]amino}-3-[(trifluoromethyl)sulfonyl]phenyl}sulfonyl)-2-(1H-indol-5-yloxy)benzamide] | 40.3 nM | 0.523 nM
12 | O=C(NS(=O)(=O)c1ccc(NCCCN2CCOCC2)c(S(=O)(=O)C(F)(F)F)c1)c1ccc(N2CCN(Cc3ccccc3-c3ccc(Cl)cc3)CC2)cc1Oc1cccc2[nH]ccc12 [Example 65, 4-{4-[(4′-chloro-1,1′-biphenyl-2-yl)methyl]piperazin-1-yl}-2-(1H-indol-4-yloxy)-N-({4-[(3-morpholin-4-ylpropyl)amino]-3-[(trifluoromethyl)sulfonyl]phenyl}sulfonyl)benzamide] | 21.8 nM | 4.56 nM
13 | CN(C)CCCNc1ccc(S(=O)(=O)NC(=O)c2ccc(N3CCN(CC4=C(c5ccc(Cl)cc5)CC(C)(C)CC4)CC3)cc2Oc2ccc3[nH]ccc3c2)cc1S(=O)(=O)C(F)(F)Cl [Example 67, N-[(3-{[chloro(difluoro)methyl]sulfonyl}-4-{[3-(dimethylamino)propyl]amino}phenyl)sulfonyl]-4-(4-{[2-(4-chlorophenyl)-4,4-dimethylcyclohex-1-en-1-yl]methyl}piperazin-1-yl)-2-(1H-indol-5-yloxy)benzamide] | > 660 nM | 289 nM
14 | O=C(NS(=O)(=O)c1ccc(NCCCN2CCOCC2)cc1)c1ccc(N2CCN(Cc3ccccc3-c3ccc(Cl)cc3)CC2)cc1Oc1ccccc1 [Example 78, 4-{4-[(4′-chloro-1,1′-biphenyl-2-yl)methyl]piperazin-1-yl}-N-({4-[(3-morpholin-4-ylpropyl)amino]phenyl}sulfonyl)-2-phenoxybenzamide] | > 660 nM | 113 nM
15 | O=C(NS(=O)(=O)c1ccc(NCC2CCOCC2)c([N+](=O)[O-])c1)c1ccc(N2CCN(Cc3ccccc3-c3ccc(Cl)cc3)CC2)cc1Oc1cccnc1 [Example 79, 4-{4-[(4′-chloro-1,1′-biphenyl-2-yl)methyl]piperazin-1-yl}-N-({3-nitro-4-[(tetrahydro-2H-pyran-4-ylmethyl)amino]phenyl}sulfonyl)-2-(pyridin-3-yloxy)benzamide] | 97.2 nM | 2.05 nM
16 | CN1CCN(CCNc2ccc(S(=O)(=O)NC(=O)c3ccc(N4CCN(Cc5ccccc5-c5ccc(Cl)cc5)CC4)cc3Oc3ccccc3)cc2[N+](=O)[O-])CC1 [Example 85, 4-{4-[(4′-chloro-1,1′-biphenyl-2-yl)methyl]piperazin-1-yl}-N-[(4-{[2-(4-methylpiperazin-1-yl)ethyl]amino}-3-nitrophenyl)sulfonyl]-2-phenoxybenzamide] | 11.5 nM | 0.236 nM
17 | CN(C)CCCN(C)c1ccc(S(=O)(=O)NC(=O)c2ccc(N3CCN(Cc4ccccc4-c4ccc(Cl)cc4)CC3)cc2Oc2ccccc2)cc1[N+](=O)[O-] [Example 87, 4-{4-[(4′-chloro-1,1′-biphenyl-2-yl)methyl]piperazin-1-yl}-N-({4-[[3-(dimethylamino)propyl](methyl)amino]-3-nitrophenyl}sulfonyl)-2-phenoxybenzamide] | 407 nM | 0.762 nM
18 | CN(C)CCCNc1ccc(S(=O)(=O)NC(=O)c2ccc(N3CCN(Cc4ccccc4-c4ccc(Cl)cc4)CC3)cc2Oc2ccccc2)cc1C#N [Example 90, 4-{4-[(4′-chloro-1,1′-biphenyl-2-yl)methyl]piperazin-1-yl}-N-[(3-cyano-4-{[3-(dimethylamino)propyl]amino}phenyl)sulfonyl]-2-phenoxybenzamide] | 284 nM | 2.13 nM
19 | O=C(NS(=O)(=O)c1ccc(NCCCN2CCCC2)c([N+](=O)[O-])c1)c1ccc(N2CCN(Cc3ccccc3-c3ccc(Cl)cc3)CC2)cc1Oc1ccccc1 [Example 91, 4-{4-[(4′-chloro-1,1′-biphenyl-2-yl)methyl]piperazin-1-yl}-N-({3-nitro-4-[(3-pyrrolidin-1-ylpropyl)amino]phenyl}sulfonyl)-2-phenoxybenzamide] | 10.2 nM | 0.193 nM
20 | CN(C)CCCNc1ccc(S(=O)(=O)NC(=O)c2ccc(N3CCN(Cc4ccccc4-c4ccc(Cl)cc4)CC3)cc2Oc2ccccc2)cc1C(F)(F)F [Example 92, 4-{4-[(4′-chloro-1,1′-biphenyl-2-yl)methyl]piperazin-1-yl}-N-{[4-{[3-(dimethylamino)propyl]amino}-3-(trifluoromethyl)phenyl]sulfonyl}-2-phenoxybenzamide] | 349 nM | 4.38 nM
